Test results published in PubChem BioAssay AID2060490 (Molecular Pharmacology Branch, DTP, NCI, 2025).

Tested on: 885512-296-R-J2-PDC complex spheroid viability
Assay: Anticancer human tumor 885512-296-R-J2-PDC patient-derived breast carcinoma cell line growth inhibition [GQUAD]
Settings: for IC50: curve of first compound; for viability, T/C: stronger effect = lower value
Procedure, shortened: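 Viability of tumor cells grown as complex spheroids with endothelial and stromal cells, exposed to drug combinations. Top concentration at or near clinical Cmax (else 10 microM), diluted in half-log increments.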

[1] = second compound 0.0316 µM, first compound 0.0316 µM
[2] = second compound 0.0316 µM, first compound 0.1 µM
[3] = second compound 0.0316 µM, first compound 0.316 µM
[4] = second compound 0.0316 µM, first compound 1 µM
[5] = second compound 0.0316 µM, first compound 3.16 µM
[6] = second compound 0.0316 µM, first compound 10 µM
[7] = second compound 0.1 µM, first compound 0.0316 µM
[8] = second compound 0.1 µM, first compound 0.1 µM
[9] = second compound 0.1 µM, first compound 0.316 µM
[10] = second compound 0.1 µM, first compound 1 µM
[11] = second compound 0.1 µM, first compound 3.16 µM
[12] = second compound 0.1 µM, first compound 10 µM
[13] = second compound 0.316 µM, first compound 0.0316 µM
[14] = second compound 0.316 µM, first compound 0.1 µM
[15] = second compound 0.316 µM, first compound 0.316 µM
[16] = second compound 0.316 µM, first compound 1 µM
[17] = second compound 0.316 µM, first compound 3.16 µM
[18] = second compound 0.316 µM, first compound 10 µM
[19] = second compound 1 µM, first compound 0.0316 µM
[20] = second compound 1 µM, first compound 0.1 µM
[21] = second compound 1 µM, first compound 0.316 µM
[22] = second compound 1 µM, first compound 1 µM
[23] = second compound 1 µM, first compound 3.16 µM
[24] = second compound 1 µM, first compound 10 µM
[25] = second compound 3.16 µM, first compound 0.0316 µM
[26] = second compound 3.16 µM, first compound 0.1 µM
[27] = second compound 3.16 µM, first compound 0.316 µM
[28] = second compound 3.16 µM, first compound 1 µM
[29] = second compound 3.16 µM, first compound 3.16 µM
[30] = second compound 3.16 µM, first compound 10 µM
[31] = second compound 10 µM, first compound 0.0316 µM
[32] = second compound 10 µM, first compound 0.1 µM
[33] = second compound 10 µM, first compound 0.316 µM
[34] = second compound 10 µM, first compound 1 µM
[35] = second compound 10 µM, first compound 3.16 µM
[36] = second compound 10 µM, first compound 10 µM
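Further: spheroids exposed to the compounds for one week.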
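Wherever viability, T/C is given: percent of tumor spheroid viability relative to DMSO vehicle control wells.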

Compound: CC1COCCN1c1cc(C2(S(C)(=N)=O)CC2)nc(-c2ccnc3[nH]ccc23)n1 (stereo unspecified) + Cc1cnc(CNC(=O)c2c(=O)c3ccc(N4CCCN(C)CC4)nc3n3c2sc2ccccc23)cn1
- IC50 (second compound 0.0316 µM): 0.367 µM
- IC50 (second compound 0.1 µM): 0.0928 µM
- IC50 (second compound 0.316 µM): < 0.0316 µM
- IC50 (second compound 1 µM): < 0.0316 µM
- IC50 (second compound 3.16 µM): < 0.0316 µM
- IC50 (second compound 10 µM): < 0.0316 µM
- viability, T/C [1]: 73.9%
- viability, T/C [2]: 66.2%
- viability, T/C [3]: 55.8%
- viability, T/C [4]: 15.9%
- viability, T/C [5]: 4.2%
- viability, T/C [6]: 3.7%
- viability, T/C [7]: 63.4%
- viability, T/C [8]: 47.5%
- viability, T/C [9]: 31.3%
- viability, T/C [10]: 11.4%
- viability, T/C [11]: 5.24%
- viability, T/C [12]: 3.6%
- viability, T/C [13]: 25.2%
- viability, T/C [14]: 19.2%
- viability, T/C [15]: 19.4%
- viability, T/C [16]: 8.96%
- viability, T/C [17]: 4.98%
- viability, T/C [18]: 4.66%
- viability, T/C [19]: 19.8%
- viability, T/C [20]: 20.2%
- viability, T/C [21]: 17.1%
- viability, T/C [22]: 8.13%
- viability, T/C [23]: 4.36%
- viability, T/C [24]: 4.77%
- viability, T/C [25]: 25.1%
- viability, T/C [26]: 18.4%
- viability, T/C [27]: 17%
- viability, T/C [28]: 4.84%
- viability, T/C [29]: 3.04%
- viability, T/C [30]: 3.44%
- viability, T/C [31]: 0.12%
- viability, T/C [32]: 0.18%
- viability, T/C [33]: 0.22%
- viability, T/C [34]: 0.19%
- viability, T/C [35]: 0.24%
- viability, T/C [36]: 0.23%

Compound: Cn1ncnc1[C@H]1c2n[nH]c(=O)c3cc(F)cc(c23)N[C@@H]1c1ccc(F)cc1 + Cc1cnc(CNC(=O)c2c(=O)c3ccc(N4CCCN(C)CC4)nc3n3c2sc2ccccc23)cn1
- IC50 (second compound 0.0316 µM): 0.0435 µM
- IC50 (second compound 0.1 µM): 0.00357 µM
- IC50 (second compound 0.316 µM): < 0.000999 µM
- IC50 (second compound 1 µM): < 0.000999 µM
- IC50 (second compound 3.16 µM): < 0.000999 µM
- IC50 (second compound 10 µM): < 0.000999 µM
- viability, T/C (second compound 0.0316 µM, first compound 0.000999 µM): 89.2%
- viability, T/C (second compound 0.0316 µM, first compound 0.00316 µM): 83.8%
- viability, T/C (second compound 0.0316 µM, first compound 0.00999 µM): 73.5%
- viability, T/C [1]: 57%
- viability, T/C (second compound 0.0316 µM, first compound 0.0999 µM): 34.4%
- viability, T/C [3]: 25.5%
- viability, T/C (second compound 0.1 µM, first compound 0.000999 µM): 51.7%
- viability, T/C (second compound 0.1 µM, first compound 0.00316 µM): 57.4%
- viability, T/C (second compound 0.1 µM, first compound 0.00999 µM): 37.1%
- viability, T/C [7]: 34%
- viability, T/C (second compound 0.1 µM, first compound 0.0999 µM): 27.3%
- viability, T/C [9]: 21.1%
- viability, T/C (second compound 0.316 µM, first compound 0.000999 µM): 31.3%
- viability, T/C (second compound 0.316 µM, first compound 0.00316 µM): 24%
- viability, T/C (second compound 0.316 µM, first compound 0.00999 µM): 24.2%
- viability, T/C [13]: 20.5%
- viability, T/C (second compound 0.316 µM, first compound 0.0999 µM): 24%
- viability, T/C [15]: 20.1%
- viability, T/C (second compound 1 µM, first compound 0.000999 µM): 27.4%
- viability, T/C (second compound 1 µM, first compound 0.00316 µM): 22.9%
- viability, T/C (second compound 1 µM, first compound 0.00999 µM): 24.3%
- viability, T/C [19]: 19.2%
- viability, T/C (second compound 1 µM, first compound 0.0999 µM): 20%
- viability, T/C [21]: 21.6%
- viability, T/C (second compound 3.16 µM, first compound 0.000999 µM): 30.3%
- viability, T/C (second compound 3.16 µM, first compound 0.00316 µM): 26.9%
- viability, T/C (second compound 3.16 µM, first compound 0.00999 µM): 23.2%
- viability, T/C [25]: 26.2%
- viability, T/C (second compound 3.16 µM, first compound 0.0999 µM): 21.3%
- viability, T/C [27]: 22.2%
- viability, T/C (second compound 10 µM, first compound 0.000999 µM): 0.17%
- viability, T/C (second compound 10 µM, first compound 0.00316 µM): 0.23%
- viability, T/C (second compound 10 µM, first compound 0.00999 µM): 0.25%
- viability, T/C [31]: 0.19%
- viability, T/C (second compound 10 µM, first compound 0.0999 µM): 0.2%
- viability, T/C [33]: 0.23%

Compound: O=C(c1cc(Cc2n[nH]c(=O)c3ccccc23)ccc1F)N1CCN(C(=O)C2CC2)CC1 + Cc1cnc(CNC(=O)c2c(=O)c3ccc(N4CCCN(C)CC4)nc3n3c2sc2ccccc23)cn1
- IC50 (second compound 0.0316 µM): 2.56 µM
- IC50 (second compound 0.1 µM): 0.551 µM
- IC50 (second compound 0.316 µM): < 0.0316 µM
- IC50 (second compound 1 µM): < 0.0316 µM
- IC50 (second compound 3.16 µM): < 0.0316 µM
- IC50 (second compound 10 µM): < 0.0316 µM
- viability, T/C [1]: 78.3%
- viability, T/C [2]: 69.4%
- viability, T/C [3]: 95.4%
- viability, T/C [4]: 83.6%
- viability, T/C [5]: 42.9%
- viability, T/C [6]: 23.8%
- viability, T/C [7]: 57.4%
- viability, T/C [8]: 55.5%
- viability, T/C [9]: 53.2%
- viability, T/C [10]: 46.8%
- viability, T/C [11]: 35.4%
- viability, T/C [12]: 22.5%
- viability, T/C [13]: 28.4%
- viability, T/C [14]: 26.7%
- viability, T/C [15]: 25.7%
- viability, T/C [16]: 17.6%
- viability, T/C [17]: 10.7%
- viability, T/C [18]: 15.5%
- viability, T/C [19]: 23.4%
- viability, T/C [20]: 22.8%
- viability, T/C [21]: 25.7%
- viability, T/C [22]: 21%
- viability, T/C [23]: 18%
- viability, T/C [24]: 18.4%
- viability, T/C [25]: 25%
- viability, T/C [26]: 26.6%
- viability, T/C [27]: 27%
- viability, T/C [28]: 24.5%
- viability, T/C [29]: 23%
- viability, T/C [30]: 8.85%
- viability, T/C [31]: 0.44%
- viability, T/C [32]: 0.21%
- viability, T/C [33]: 0.23%
- viability, T/C [34]: 0.19%
- viability, T/C [35]: 0.23%
- viability, T/C [36]: 0.19%
